Series [1] relates to acid secretion. As to the kind of experiment: VOL, TAO: Acid Secretion Inhibition Test In Vivo. Set-up: species or system rat (male Crj:Donryu). Particulars: rat, 100 mg/kg oral, histamine-stimulated, pylorus ligated. The procedure: VOL, TAO: Acid Secretion Inhibition Test In Vivo
Inhibitory effect on acid secretion in vivo is confirmed.
Male Crj:Donryu rats (7-week-old) were fasted overnight but allowed free access to water. In each group, 8 to 10 of these rats were used under urethane anesthesia (1.25 g/kg). The sample compound dissolved or suspended in an aqueous solution of 0.5% sodium carboxymethylcellulose or 0.05% Tween 80 was orally administered (100 mg/10 ml/kg). 30 minutes later, the abdomen of each was incised and the pylorus was ligated. 30 minutes after the ligation, 30 mg/kg of histamine dissolved in physiological saline were subcutaneously administered and, 3 hours thereafter, the rat was sacrificed with carbon dioxide. Immediately thereafter, each stomach was removed and the gastric contents were collected and each volume was determined. The total acid output was determined by titration of the gastric juice with 0.1N NaOH.
With respect to the gastric juice volume (VOL) and the total acid output (TAO), the effects obtained when 100 mg/kg of the sample compound had been administered were expressed as their respective inhibitory rates (%) as follows:
each inhibitory rate (%)=[1-(value in sample group/value in control group)]×100

Series [2] is described as follows: MTT: Cell Damaging and Protecting Effect Test. Particulars: rabbit, gastric mucosal cells. Type of series: cell-based, rabbit (male Japanese White). From the text: (§1) MTT: Cell Damaging and Protecting Effect Test
(§2) It is confirmed that there is no toxicity in cell level. Those having a toxicity in cell level are inappropriate as an anti-ulcer drug.
(§3) A male Japanese White rabbit (2.5 to 3 kg) was anesthetized to death by Nembutal™ and, immediately thereafter, its stomach was removed. The greater curvature of the stomach was incised so as to remove the stomach contents therefrom. After the mucosal surface was washed with HBSS (Hanks' Balanced Salt Solution), the stomach in ice-cooled HBSS was transferred to a laboratory. Then, after the pyloric antrum was removed, the gastric corpus mucosa was separated by a spatula and then minced into 2 to 3 mm^3 pieces in BME (Basal Medium Eagle). Thereafter, these pieces were shaken at 120 to 130 cycles/minute for 15 minutes at 37° C. in BME 60ml containig 280 U/ml of dispase and 30 to 50 U/ml of collagenase. Here, the concentration of collagenase was appropriately changed for each lot in view of the state of cells. The pieces were washed twice with EBSS (Earle's Balanced Salt Solution) containing 1 mM of EDTA and then shaken in MEM (Minimum Essential Medium) containing 1 mM of EDTA at 37° C. for 5 minutes. Subsequently, they were shaken in the dispase and collagenase having the same concentrations as those mentioned above for 15 minutes so as to remove the supernatant and then further shaken at 37° C. for 50 to 60 minutes at 120 to 130 cycles/minute. Then, after being washed twice with HBSS, Ham F12 containing 2% of Ultrocer G™ was used to attain the concentration of 1×10^6 cells/ml. Thus formed suspension was dispensed in each well of a 96-well plate by 200 μl. The plate was incubated in the atmosphere composed of 5% CO2 and 95% air at 37° C. for three days so as to attain a confluent state and then subjected to MTT assay.
(§4) The sample compound was dissolved in DMSO so as to attain a concentration of 10^-2 M and then diluted with HBSS containing 2% of Ultrocer G™ so as to attain a final concentration of 10^-4 M. To each group, which 8 wells were used for, 10 μl of MTT reagent were added immediately after 100 μl of the medium in each well were exchanged for same volume of the resulting solution of the sample compound. After being incubated in an atmosphere composed of 5% CO2 and 95% air at 37° C. for 4 hours, thus formed solution was centrifuged and then its supernatant was discarded. Subsequently, 100 μl of 100% ethanol were added to the residue so as to dissolve MTT formazan. Then, the absorbance (OD: 570 to 630) was measured by a microplate reader. This method utilizes a phenomenon in which MTT is changed to MTT formazan only by mitochondria of living cells so as to change color.
(§5) The cell damaging or cell protecting effect of the sample compound at the final concentration of 10^-4 M was expressed as cell damaging rate (%) as follows:
(§6) cell damaging rate (%)=[1-(absorbance in sample group/absorbance in control group)]×100
(§7) Accordingly, the smaller value is better in the cell damaging rate.

For series [3], the system named is gastric mucosa. As to the kind of experiment: PD: Gastric Mucosal Integrity Test. It is filed as in vivo, rat (male Crj:SD). Particulars: rat, 100 mg/kg into ex vivo chamber, 60 minutes. The procedure:
PD: Gastric Mucosal Integrity Test
In this case, since the sample compound has a necrotizing effect, it is inappropriate as an anti-ulcer medicament.
Therefore, the gastric mucosal potential difference (PD), which reflects the integrity of the gastric mucosa, is measured so as to confirm that the sample compound has no damasing effect on gastric mucosa, which is toxicity at gastric mucosal level.
Male Crj:SD rats (7 to 8-week-old) was fasted overnight, but allowed free access to water, and then, under urethane anesthesia (1.25 g/kg, i.p.), fixed to a cork board on its back. The abdomen of each rat was incised, and a small incision was made in the forestomach. Then, the inside of the stomach was washed with physiological saline heated at 37° C. From the forestomach, along the greater curvature thereof, the stomach was incised without damaging blood vessels. After the height of the cork board was adjusted on a jack, the stomach was mounted on ex vivo chamber. The area of the gastric mucosa exposed to the inside of this chamber was 2.5 cm^2. The inside of the chamber was perfused with physiological saline warmed at 37° C. by micro tube pump. By using an agar bridge containing 3M KCl, the potential difference between the chamber and the abdominal cavity was measured by a PD meter. Here, the rectal temperature was measured to control the body temperature during the experiment. After the PD was sufficiently stabilized, the perfusate was stopped and then 100 mg/10 ml/kg of the sample compound dissolved or suspended in an aqueous solution of 0.5% sodium carboxymethyl cellulose or 0.05% Tween 80 were administered into the chamber, while PD was recorded for 60 minutes. To a control, the vehicle was administered.
The change in PD during 60 minutes after the administration of 100 mg/kg of the sample compound was collectively studied and, with reference to the positive control, classified into 5 levels as follows:
5: Same as the control with no recognizable damage at all.
3: Though a weak decrease in PD and a possibility of a weak mucosal damage is recognized, there is no substantial problem.
2: Medium degree of decrease in PD is found and a mucosal damage is recognized.
1: Heavy degree of decrease in PD is found and a remarkable mucosal damage is recognized.

Series [4] has as its system gastric corpus mucosa cells. In words: MTT: Cell Damaging and Protecting Effect Test. Type of series: cell-based, rabbit (male Japanese White). To be noted: final concentration 10^-4 M, 4 hours; smaller value is better; 100 µM.
Source text: as §1, §2, §3, §4, §5, §6, §7

The mark [5] stands for this setting: final concentration 10^-4 M, 4 hours, smaller value is better, read-out: MTT: cell damaging rate.

The text below walks through data of patent publication US5756505A, “N-acylpiperazine derivative, antibacterial drug and anti-ulcer drug” (Shiseido Co., Ltd., priority 1995, dated 1998).

SMILES strings stand for the structures. Read-outs that look alike come from different tables or passages of the source.

On to `CC(C)Cc1cc(CN2CCN(CC(C)C)CC2)ccc1OCc1ccc(F)cc1.Cl.Cl` [Example 20, 1-[4-(4-fluorobenzyloxy)-3-isobutylbenzyl]-4-isobutylpiperazine dihydrochloride], for which, in series [1], the “TAO: total acid output inhibitory rate” value is listed as 43% and the “VOL: gastric juice volume inhibitory rate” value was found to be 12%. The cytotoxicity at 4 h, 100 µM in series [2] (setting [5]) worked out at 45%. The “PD: change in gastric mucosal potential difference, level” value in series [3] amounted to 2.

Take `Cc1cccc(COc2ccc(C(=O)N3CCN(CC(C)C)CC3)cc2CC(C)C)c1F.Cl` [Example 12, 1-[4-(2-fluoro-3-methylbenzyloxy)-3-isobutylbenzoyl]-4-isobutylpiperazine hydrochloride]: the cytotoxicity at 4 h, 100 µM in series [2] (setting [5]) was -15%. For the same molecule, the “PD: change in gastric mucosal potential difference, level” value in series [3] was 2.

For the molecule `C=C(C)Cc1cc(C(=O)N2CCN(CC(C)C)CC2)ccc1OCc1ccc(F)cc1.Cl` [Example 4, 1-[4-(4-fluorobenzyloxy)-3-methallylbenzoyl]-4-isobutylpiperazine hydrochloride], the cytotoxicity at 4 h, 100 µM in series [2] (setting [5]) is -67%.

Regarding `CC(C)Cc1cc(C(=O)N2CCN(CCO)CC2)ccc1OCc1ccc(F)cc1` [Example 9, 1-[4-(4-fluorobenzyloxy)-3-isobutylbenzoyl]-4-(2-hydroxyethyl)piperazine], the cytotoxicity at 4 h, 100 µM in series [2] (setting [5]) was found to be 26%. In addition, the “PD: change in gastric mucosal potential difference, level” value in series [3] is on record as 2.

With `CC(C)CN1CCN(C(=O)c2ccc(OCc3ccc(F)cc3)cc2)CC1` [Example 5, 1-[4-(4-fluorobenzyloxy)benzoyl]-4-isobutylpiperazine], the “MTT: cell damaging rate” value in series [4] is -84%.

For the molecule `CC(C)CN1CCN(C(=O)c2ccc(OCc3ccc(F)cc3)c([N+](=O)[O-])c2)CC1.Cl` [Example 8, 1-[4-(4-fluorobenzyloxy)-3-nitrobenzoyl]-4-isobutylpiperazine hydrochloride], in series [1], the “TAO: total acid output inhibitory rate” value is given as 16% and the “VOL: gastric juice volume inhibitory rate” value is 8%. Moreover, the cytotoxicity at 4 h, 100 µM in series [2] (setting [5]) was -65%. In series [3], the “PD: change in gastric mucosal potential difference, level” value worked out at 2.

With `CC(C)Cc1cc(CC(=O)N2CCN(CC(C)C)CC2)ccc1OCc1ccccc1` [Example 15, 1-(4-benzyloxy-3-isobutylphenylacetyl)-4-isobutylpiperazine], the cytotoxicity at 4 h, 100 µM in series [2] (MTT: cell damaging rate) is -55%.

`COc1ccc(COc2ccc(C(=O)N3CCN(CC(C)C)CC3)cc2CC(C)C)cc1` [Example 14, 1-isobutyl-4-[3-isobutyl-4-(4-methoxybenzyloxy)benzoyl]piperazine]: the cytotoxicity at 4 h, 100 µM in series [2] (setting [5]) amounted to 11%.

Regarding `CC(C)Cc1cc(C(=O)N2CCN(CC(C)C)CC2)ccc1OCc1ccc(F)c(F)c1.Cl` [Example 23, 1-[4-(3,4-difluorobenzyloxy)-3-isobutylbenzoyl]-4-isobutylpiperazine hydrochloride], in series [1], the “TAO: total acid output inhibitory rate” value is 9% and the “VOL: gastric juice volume inhibitory rate” value was -9%. For the same molecule, the cytotoxicity at 4 h, 100 µM in series [2] (setting [5]) was found to be 28%.

On to `CC(C)Cc1cc(C(=O)N2CCN(CC(C)C)CC2)ccc1OCc1ccc(F)c(F)c1` [Example 26, 1-[4-(3,4-difluorobenzyloxy)-3-isobutylbenzoyl]-4-isobutylpiperazine], for which the “MTT: cell damaging rate” value in series [4] was determined as 29%.

For `CC(C)Cc1cc(C(=O)N2CCN(CC(C)C)CC2)ccc1OCc1ccc(F)cc1F` [Example 27, 1-[4-(2,4-difluorobenzyloxy)-3-isobutylbenzoyl]-4-isobutylpiperazine], the “MTT: cell damaging rate” value in series [4] was -119%.

On to `CC(C)Cc1cc(C(=O)N2CCN(C(=O)C(C)C)CC2)ccc1OCc1ccc(F)cc1` [Example 6, 1-[4-(4-fluorobenzyloxy)-3-isobutylbenzoyl]-4-isobutyrylpiperazine], for which, in series [2] (setting [5]), the cytotoxicity at 4 h, 100 µM was -29%.

Take `CC(C)CN1CCN(C(=O)c2ccc(OCc3ccccc3)cc2)CC1` [Example 3, 1-(4-benzyloxybenzoyl)-4-isobutylpiperazine]: the cytotoxicity at 4 h, 100 µM in series [2] (setting [5]) was -16%. The “PD: change in gastric mucosal potential difference, level” value in series [3] is listed as 5.

`CC(C)CN1CCN(C(=O)c2ccc(OCc3ccc(F)cc3)cc2)CC1.Cl` [Example 2, 1-[4-(4-fluorobenzyloxy)benzoyl]-4-isobutylpiperazine hydrochloride]: in series [4], the “MTT: cell damaging rate” value is on record as -6%. Moreover, the “PD: change in gastric mucosal potential difference, level” value in series [3] was found to be 2.

Consider `CC(C)Cc1cc(C(=O)N2CCN(CC(C)C)CC2)ccc1OCc1ccccc1` [Example 16, 1-(4-benzyloxy-3-isobutylbenzoyl)-4-isobutylpiperazine], for which the cytotoxicity at 4 h, 100 µM in series [2] (setting [5]) is -98%. Also, the “PD: change in gastric mucosal potential difference, level” value in series [3] came out at 5.

As to `CC(C)Cc1cc(C(=O)N2CCN(CC(C)C)CC2)ccc1OCc1ccc(F)cc1.O=C(O)C(=O)O` [Example 25, 1-[4-(4-fluorobenzyloxy)-3-isobutylbenzoyl]-4-isobutylpiperazine oxalate], in series [1], the “TAO: total acid output inhibitory rate” value is on record as 47% and the “VOL: gastric juice volume inhibitory rate” value was determined as 19%. The “MTT: cell damaging rate” value in series [4] is on record as -28%.

Turning to `CC(C)Cc1cc(C(=O)N2CCN(CC(C)C)CC2)ccc1OCc1ccc(Cl)cc1` [Example 17, 1-[4-(4-chlorobenzyloxy)-3-isobutylbenzoyl]-4-isobutylpiperazine], the cytotoxicity at 4 h, 100 µM in series [2] (setting [5]) was -18%. In addition, in series [3], the “PD: change in gastric mucosal potential difference, level” value came to 4.

On to `CC(C)Cc1cc(C(=O)N2CCN(CC(C)C)CC2)ccc1OCc1ccc([N+](=O)[O-])cc1.Cl` [Example 13, 1-isobutyl-4-[3-isobutyl-4-(4-nitrobenzyloxy)benzoyl]piperazine hydrochloride], for which, in series [1], the “TAO: total acid output inhibitory rate” value was 18% and the “VOL: gastric juice volume inhibitory rate” value amounted to 3%. For the same molecule, the cytotoxicity at 4 h, 100 µM in series [2] (setting [5]) was -66%. Further, in series [3], the “PD: change in gastric mucosal potential difference, level” value stood at 2.
